Source: patent US20260207578A1, “COMPOUND BASED ON SULFUR/OXYGEN SUBSTITUTED GLUTARIMIDE-BASED ISOINDOLINONE SKELETON AND USE THEREOF” (Gluetacs Therapeutics (Shanghai) Co., LTD., priority 2022, published 2026)

Experiments:
[1] = biological target: T1, human Cereblon WT GST-tagged protein (Homo sapiens, UniProt Q96SW2); test: CRBN-binding affinity, HTRF (CEREBLON BINDING kit); settings: displacement of Thalidomide-Re reagent, 3 hours at room temperature
T1 construct: purchased CISBIO 64BDCRBNPEH
T1 sequence (Q96SW2 whole entry): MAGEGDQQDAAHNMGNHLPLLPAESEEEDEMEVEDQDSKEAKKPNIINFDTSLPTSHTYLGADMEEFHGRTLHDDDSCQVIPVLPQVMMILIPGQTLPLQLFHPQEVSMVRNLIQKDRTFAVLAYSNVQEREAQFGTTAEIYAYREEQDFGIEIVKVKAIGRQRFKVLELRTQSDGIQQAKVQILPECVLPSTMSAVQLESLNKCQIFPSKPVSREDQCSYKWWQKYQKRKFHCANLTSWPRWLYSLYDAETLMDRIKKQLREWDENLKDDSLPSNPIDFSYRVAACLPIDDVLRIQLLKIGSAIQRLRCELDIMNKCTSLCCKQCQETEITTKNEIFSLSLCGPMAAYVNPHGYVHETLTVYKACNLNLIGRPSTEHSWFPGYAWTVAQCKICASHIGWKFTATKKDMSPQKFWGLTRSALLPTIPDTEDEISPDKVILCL
Summary of the method: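 Compounds displace a thalidomide-Re tracer from GST-tagged human Cereblon WT, detected with an Eu-labelled anti-GST antibody by time-resolved fluorescence. Signal at 620 nm was normalised against solvent and blank controls.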

IKZF3 = biological target: T2, IKZF3 (Homo sapiens, UniProt Q96SW2+Q9UKT9); test: Western-blot assay, substrate protein in hPBMCs; assay type: cell-based; settings: hPBMC cells, 24 hours, tested at 50 nM and 500 nM, table does not say which
T2 construct: endogenous in cells; host or cells: human PBMCs (Milecell Biotechnologies)
T2 sequence (Q9UKT9 whole entry): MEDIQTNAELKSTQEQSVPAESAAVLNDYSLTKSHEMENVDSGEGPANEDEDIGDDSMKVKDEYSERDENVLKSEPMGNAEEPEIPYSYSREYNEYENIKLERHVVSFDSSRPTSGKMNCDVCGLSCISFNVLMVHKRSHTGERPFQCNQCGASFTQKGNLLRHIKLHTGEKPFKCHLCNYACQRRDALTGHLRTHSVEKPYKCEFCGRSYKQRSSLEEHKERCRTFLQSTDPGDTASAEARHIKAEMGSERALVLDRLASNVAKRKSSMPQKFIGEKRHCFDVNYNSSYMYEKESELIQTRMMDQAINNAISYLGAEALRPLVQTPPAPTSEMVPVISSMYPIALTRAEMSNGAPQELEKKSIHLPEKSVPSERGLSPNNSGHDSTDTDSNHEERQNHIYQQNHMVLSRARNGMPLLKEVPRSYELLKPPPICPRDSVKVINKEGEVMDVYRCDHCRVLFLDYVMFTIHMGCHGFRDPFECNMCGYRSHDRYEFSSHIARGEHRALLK
T2 sequence (Q96SW2 whole entry): as the sequence (Q96SW2 whole entry) above
T2 sequence (Q16531 whole entry partner): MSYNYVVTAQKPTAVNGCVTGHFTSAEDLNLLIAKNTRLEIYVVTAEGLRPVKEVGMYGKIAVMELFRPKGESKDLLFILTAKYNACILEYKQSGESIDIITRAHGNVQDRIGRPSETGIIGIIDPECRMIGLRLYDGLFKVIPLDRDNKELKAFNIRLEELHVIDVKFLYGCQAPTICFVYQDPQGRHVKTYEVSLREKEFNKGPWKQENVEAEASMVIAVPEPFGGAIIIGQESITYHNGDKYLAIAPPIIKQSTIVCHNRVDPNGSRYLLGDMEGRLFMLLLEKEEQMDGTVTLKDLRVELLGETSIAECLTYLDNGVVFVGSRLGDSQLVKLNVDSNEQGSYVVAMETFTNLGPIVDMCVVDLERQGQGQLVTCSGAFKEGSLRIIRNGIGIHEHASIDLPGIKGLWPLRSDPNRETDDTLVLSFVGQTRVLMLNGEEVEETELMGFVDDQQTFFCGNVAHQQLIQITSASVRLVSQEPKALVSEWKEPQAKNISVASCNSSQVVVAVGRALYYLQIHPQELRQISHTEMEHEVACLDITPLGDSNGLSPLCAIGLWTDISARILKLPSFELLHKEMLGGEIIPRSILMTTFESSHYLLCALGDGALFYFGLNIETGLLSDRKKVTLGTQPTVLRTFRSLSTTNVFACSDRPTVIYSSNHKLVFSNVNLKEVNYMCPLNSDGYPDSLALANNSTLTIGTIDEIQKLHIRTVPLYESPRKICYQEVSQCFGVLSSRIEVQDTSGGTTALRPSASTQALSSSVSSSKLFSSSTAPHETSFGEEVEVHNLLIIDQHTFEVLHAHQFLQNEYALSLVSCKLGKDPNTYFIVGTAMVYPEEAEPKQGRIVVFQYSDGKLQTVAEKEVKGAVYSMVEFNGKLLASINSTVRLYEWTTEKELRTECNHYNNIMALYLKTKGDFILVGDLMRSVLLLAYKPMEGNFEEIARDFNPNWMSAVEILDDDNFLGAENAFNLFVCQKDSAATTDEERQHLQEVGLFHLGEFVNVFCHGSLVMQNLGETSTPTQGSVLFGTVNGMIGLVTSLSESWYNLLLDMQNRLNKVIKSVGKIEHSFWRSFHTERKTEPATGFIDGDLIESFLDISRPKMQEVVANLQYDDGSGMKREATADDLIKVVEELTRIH
Description: (§1) The effect of the compounds of the present disclosure on the expression of target proteins in cells was detected using conventional Western blot analysis.
(§2) Human peripheral blood mononuclear cells (hPBMCs) at a density of 1×10^6 cells/mL were thawed according to the PBMC Recovery Protocol (Milecell Biotechnologies Inc, Shanghai). The cells were then treated with the compounds of the present disclosure (including the compounds listed in Tables 1 and 2, and the Examples A1-A20 and 1-116 compounds) at concentrations of 50 nM and 500 nM.
(§3) Controls included a negative control (DMSO) and a positive control (the commercial immunomodulatory drug lenalidomide), both processed following the identical experimental protocol as the compounds of the present disclosure. After 24 hours of compounds treatment, cells were harvested and lysed in RIPA protein lysate containing phosphatase inhibitors on ice for 30-60 min, followed by centrifugation. The supernatant was aspirated as the extracted total cell protein. The protein concentration of the supernatant was determined using the conventional BCA (Bicinchoninic Acid) assay. The supernatant was then mixed with 4× SDS sample loading buffer, denatured at 95° C. for 5 minutes, and then subjected to SDS-PAGE electrophoresis on a polyacrylamide gel. Proteins were then transferred to a nitrocellulose (NC) membrane, blocked at room temperature for 1-2 h, and processed for antibody incubation and detection according to the manufacturer's instructions (Cell Signaling Technology).
(§4) Half-Maximal Degradation Concentration value (the drug concentration required for degrading proteins by 50%, abbreviated as DC50) reads method: comparing the grayscale values of Western blot bands from drug-treated samples with those from blank DMSO-treated controls, and identifying the drug concentration range at which the grayscale value is half that of the DMSO-treated control bands.
(§5) DC50 values can be calculated using ImageJ software to measure grayscale values of Western blot bands from drug-treated samples. The concentration-response curve is fitted to estimate the drug concentration corresponding to half the grayscale value.
(§6) Target protein remaining (%) refers to the percentage of target protein remaining in hPBMC cells after treatment with protein degrader compounds.
(§7) Calculation method for protein remaining (%): Use ImageJ software to measure grayscale values of Western blot bands from drug (protein degrader)-treated samples. The grayscale value of drug-treated bands is divided by that of internal control protein bands, and the resulting quotient is normalized to obtain the relative percentage of remaining target protein after protein degrader treatment.
(§8) Target protein degradation rate (%)=100%−target protein remaining (%).

CK1α = biological target: T3, CK1α (Homo sapiens, UniProt P48729+Q96SW2); test: Western-blot assay, substrate protein in hPBMCs; assay type: cell-based; settings: hPBMC cells, 24 hours, tested at 50 nM and 500 nM, table does not say which
T3 construct: endogenous in cells; host or cells: human PBMCs (Milecell Biotechnologies)
Summary of the method: (§9)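 Cellular protein levels after a 24 h degrader treatment of human PBMCs were assessed by Western blot densitometry relative to an internal control. Results are expressed as % remaining, % degraded, or DC50 versus DMSO-treated cells.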

GSPT1 = biological target: T4, GSPT1 (Homo sapiens, UniProt P15170+Q96SW2); test: Western-blot assay, substrate protein in hPBMCs; assay type: cell-based; settings: hPBMC cells, 24 hours, tested at 50 nM and 500 nM, table does not say which
T4 construct: endogenous in cells; host or cells: human PBMCs (Milecell Biotechnologies)
T4 sequence (P15170 whole entry): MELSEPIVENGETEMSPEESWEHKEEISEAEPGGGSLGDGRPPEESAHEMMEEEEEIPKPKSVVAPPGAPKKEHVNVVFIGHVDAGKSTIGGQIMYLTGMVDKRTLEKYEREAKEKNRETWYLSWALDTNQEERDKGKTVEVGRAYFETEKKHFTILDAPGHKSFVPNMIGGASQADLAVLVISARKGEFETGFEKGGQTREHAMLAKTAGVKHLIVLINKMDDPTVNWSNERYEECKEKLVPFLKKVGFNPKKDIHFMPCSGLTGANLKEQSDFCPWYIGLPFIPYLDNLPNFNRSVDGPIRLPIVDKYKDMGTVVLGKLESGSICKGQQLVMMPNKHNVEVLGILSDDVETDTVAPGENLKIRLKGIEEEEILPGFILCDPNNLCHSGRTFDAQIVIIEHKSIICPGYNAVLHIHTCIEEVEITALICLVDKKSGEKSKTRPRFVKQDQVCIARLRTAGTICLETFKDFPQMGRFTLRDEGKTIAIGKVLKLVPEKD
T4 sequence (Q96SW2 whole entry): as the sequence (Q96SW2 whole entry) above
T4 sequence (Q16531 whole entry partner): as the sequence (Q16531 whole entry partner) above
Summary of the method: as §9

Wee1 = biological target: T5, Wee1 (Homo sapiens, UniProt P30291+Q96SW2); test: Western-blot assay, substrate protein in hPBMCs; assay type: cell-based; settings: hPBMC cells, 24 hours, tested at 50 nM and 500 nM, table does not say which
T5 construct: endogenous in cells; host or cells: human PBMCs (Milecell Biotechnologies)
T5 sequence (P30291 whole entry): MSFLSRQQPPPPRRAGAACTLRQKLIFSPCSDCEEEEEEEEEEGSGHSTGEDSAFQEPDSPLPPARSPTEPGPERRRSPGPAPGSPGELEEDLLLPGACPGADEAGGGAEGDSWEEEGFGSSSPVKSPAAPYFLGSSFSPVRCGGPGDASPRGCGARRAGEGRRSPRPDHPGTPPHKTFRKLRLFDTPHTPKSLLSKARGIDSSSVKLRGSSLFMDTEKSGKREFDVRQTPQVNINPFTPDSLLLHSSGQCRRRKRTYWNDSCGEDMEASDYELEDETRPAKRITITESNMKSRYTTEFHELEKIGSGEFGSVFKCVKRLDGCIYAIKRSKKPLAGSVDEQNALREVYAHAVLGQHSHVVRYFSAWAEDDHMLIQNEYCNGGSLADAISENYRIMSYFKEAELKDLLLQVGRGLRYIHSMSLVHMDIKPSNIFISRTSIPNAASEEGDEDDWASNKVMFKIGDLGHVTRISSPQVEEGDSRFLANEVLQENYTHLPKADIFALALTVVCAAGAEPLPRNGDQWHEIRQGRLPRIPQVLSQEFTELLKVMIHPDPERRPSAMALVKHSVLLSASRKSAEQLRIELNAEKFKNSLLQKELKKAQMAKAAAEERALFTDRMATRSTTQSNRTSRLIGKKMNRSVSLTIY
T5 sequence (Q96SW2 whole entry): as the sequence (Q96SW2 whole entry) above
T5 sequence (Q16531 whole entry partner): as the sequence (Q16531 whole entry partner) above
Summary of the method: as §9

IKZF2 = biological target: T6, IKZF2 (Homo sapiens, UniProt Q96SW2+Q9UKS7); test: Western-blot assay, substrate protein in hPBMCs; assay type: cell-based; settings: hPBMC cells, 24 hours, tested at 50 nM and 500 nM, table does not say which
T6 construct: endogenous in cells; host or cells: human PBMCs (Milecell Biotechnologies)
T6 sequence (Q9UKS7 whole entry): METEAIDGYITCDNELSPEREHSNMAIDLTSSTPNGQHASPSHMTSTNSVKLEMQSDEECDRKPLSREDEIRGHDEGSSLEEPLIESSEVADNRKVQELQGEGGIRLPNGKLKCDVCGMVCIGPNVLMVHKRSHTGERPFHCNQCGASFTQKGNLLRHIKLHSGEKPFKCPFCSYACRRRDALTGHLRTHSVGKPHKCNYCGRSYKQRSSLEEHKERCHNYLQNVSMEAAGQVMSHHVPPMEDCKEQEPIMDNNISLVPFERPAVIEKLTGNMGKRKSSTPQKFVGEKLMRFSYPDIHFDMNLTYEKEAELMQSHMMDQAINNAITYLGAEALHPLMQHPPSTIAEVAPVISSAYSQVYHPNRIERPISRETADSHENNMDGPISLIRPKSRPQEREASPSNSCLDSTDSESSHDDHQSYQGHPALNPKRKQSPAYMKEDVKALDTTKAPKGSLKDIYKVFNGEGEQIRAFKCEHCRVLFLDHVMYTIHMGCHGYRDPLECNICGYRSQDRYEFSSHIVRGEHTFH
T6 sequence (Q96SW2 whole entry): as the sequence (Q96SW2 whole entry) above
T6 sequence (Q16531 whole entry partner): as the sequence (Q16531 whole entry partner) above
Summary of the method: as §9

IKZF1 = biological target: T7, IKZF1 (Homo sapiens, UniProt Q13422+Q96SW2); test: Western-blot assay, substrate protein in hPBMCs; assay type: cell-based; settings: hPBMC cells, 24 hours, tested at 50 nM and 500 nM, table does not say which
T7 construct: endogenous in cells; host or cells: human PBMCs (Milecell Biotechnologies)
T7 sequence (Q13422 whole entry): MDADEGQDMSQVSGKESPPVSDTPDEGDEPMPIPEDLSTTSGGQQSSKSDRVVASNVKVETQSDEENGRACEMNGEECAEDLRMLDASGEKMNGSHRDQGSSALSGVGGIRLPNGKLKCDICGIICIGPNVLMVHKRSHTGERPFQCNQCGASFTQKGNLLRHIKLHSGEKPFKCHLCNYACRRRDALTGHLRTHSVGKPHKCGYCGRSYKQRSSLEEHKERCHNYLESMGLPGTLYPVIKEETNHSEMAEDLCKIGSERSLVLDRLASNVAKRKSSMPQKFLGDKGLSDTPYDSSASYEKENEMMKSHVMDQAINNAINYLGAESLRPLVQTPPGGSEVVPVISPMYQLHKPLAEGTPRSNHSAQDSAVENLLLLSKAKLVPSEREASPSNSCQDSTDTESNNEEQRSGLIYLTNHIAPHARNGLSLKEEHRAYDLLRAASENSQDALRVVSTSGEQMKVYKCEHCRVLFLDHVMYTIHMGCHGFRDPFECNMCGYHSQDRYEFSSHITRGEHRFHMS
T7 sequence (Q96SW2 whole entry): as the sequence (Q96SW2 whole entry) above
T7 sequence (Q16531 whole entry partner): as the sequence (Q16531 whole entry partner) above
Description: as §1, §2, §3, §4, §5, §6, §7, §8

Structure (SMILES)	IC50 [1] [nM]	substrate protein remaining % (IKZF3)	substrate protein remaining % (CK1α)	substrate protein remaining % (GSPT1)	substrate protein remaining % (Wee1)	substrate protein remaining % (IKZF2)	substrate protein remaining % (IKZF1)
O=C1CCC(N2Cc3cc(OC4CN(CC5=C(c6ccc(F)cc6)CCOC5)C4)ccc3C2=O)C(=O)N1 (centres unmarked) [GT-06560, 3-(5-((1-((4-(4-fluorophenyl)-5,6-dihydro-2H-pyran-3-yl)methyl)azetidin-3-yl)oxy)-1-oxoisoindolin-2-yl)piperidine-2,6-dione]	500 to 1000	A (0%≤ substrate protein remaining % ≤80%)	–	–	A (0%≤ substrate protein remaining % ≤80%)	–	–
O=C1CCC(N2Cc3cc(SC4CCN(C(c5ccccc5)c5ccccc5)CC4)ccc3C2=O)C(=O)N1 (centres unmarked) [GT-06184, 3-(5-((1-benzhydrylpiperidin-4-yl)thio)-1-oxoisoindolin-2-yl)piperidine-2,6-dione]	500 to 1000	A (0%≤ substrate protein remaining % ≤80%)	–	A (0%≤ substrate protein remaining % ≤80%)	–	–	–
CC1(C)CCC(CN2CCCC(Oc3ccc4c(c3)CN(C3CCC(=O)NC3=O)C4=O)CC2)=C(c2ccc(Cl)cc2)C1 (centres unmarked) [GT-06929, 3-(5-((1-((4′-chloro-5,5-dimethyl-3,4,5,6-tetrahydro-[1,1′-biphenyl]-2-yl)methyl)azepan-4-yl)oxy)-1-oxoisoindolin-2-yl)piperidine-2,6-dione]	500 to 1000	A (0%≤ substrate protein remaining % ≤80%)	–	–	A (0%≤ substrate protein remaining % ≤80%)	A (0%≤ substrate protein remaining % ≤80%)	–
O=C1CCC(N2Cc3cc(SC4CN(Cc5ccc(-c6ccncc6)nc5)C4)ccc3C2=O)C(=O)N1 (centres unmarked) [GT-06808, 3-(5-((1-([2,4′-bipyridin]-5-ylmethyl)azetidin-3-yl)thio)-1-oxoisoindolin-2-yl)piperidine-2,6-dione]	500 to 1000	–	A (0%≤ substrate protein remaining % ≤80%)	–	A (0%≤ substrate protein remaining % ≤80%)	A (0%≤ substrate protein remaining % ≤80%)	A (0%≤ substrate protein remaining % ≤80%)
CC1(C)CCC(C(=O)N2C[C@H]3CC(Sc4ccc5c(c4)CN(C4CCC(=O)NC4=O)C5=O)C[C@@H]3C2)=C(c2ccc(Cl)cc2)C1 (stereo partly drawn) [GT-07022, 3-(5-(((3aS,6aS)-2-(4′-chloro-5,5-dimethyl-3,4,5,6-tetrahydro-[1,1′-biphenyl]-2-carbonyl)octahydro-cyclopenta[c]pyrrol-5-yl)thio)-1-oxoisoindolin-2-yl)piperidine-2,6-dione]	500 to 1000	A (0%≤ substrate protein remaining % ≤80%)	A (0%≤ substrate protein remaining % ≤80%)	–	–	–	–
CC1(C)CCC(C(=O)N2C[C@H]3CC(Sc4ccc5c(c4)CN(C4CCC(=O)NC4=O)C5=O)C[C@H]3C2)=C(c2ccc(Cl)cc2)C1 (stereo partly drawn) [GT-07015, 3-(5-(((3aR,6aS)-2-(4′-chloro-5,5-dimethyl-3,4,5,6-tetrahydro-[1,1′-biphenyl]-2-carbonyl)octahydro-cyclopenta[c]pyrrol-5-yl)thio)-1-oxoisoindolin-2-yl)piperidine-2,6-dione]	500 to 1000	A (0%≤ substrate protein remaining % ≤80%)	–	–	–	A (0%≤ substrate protein remaining % ≤80%)	–
O=C1CCC(N2Cc3cc(SC4CCNCC4)ccc3C2=O)C(=O)N1 (centres unmarked) [GT-03616, 3-(1-oxo-5-(piperidin-4-ylthio)isoindolin-2-yl)piperidine-2,6-dione]	1000 to 1900	–	A (0%≤ substrate protein remaining % ≤80%)	A (0%≤ substrate protein remaining % ≤80%)	–	A (0%≤ substrate protein remaining % ≤80%)	A (0%≤ substrate protein remaining % ≤80%)

Further lines, with some results ahead:

IC50 [1] [nM]	Structure (SMILES)	substrate protein remaining % (IKZF3)	substrate protein remaining % (CK1α)	substrate protein remaining % (GSPT1)	substrate protein remaining % (Wee1)	substrate protein remaining % (IKZF2)	substrate protein remaining % (IKZF1)
< 500	O=C1CCC(N2Cc3cc(SC4CCC5(CC4)CCN(C(c4ccccc4)c4ccccc4)CC5)ccc3C2=O)C(=O)N1 (centres unmarked) [GT-06958, 3-(5-((3-benzhydryl-3-azaspiro[5.5]undecan-9-yl)thio)-1-oxoisoindolin-2-yl)piperidine-2,6-dione]	A (0%≤ substrate protein remaining % ≤80%)	A (0%≤ substrate protein remaining % ≤80%)	A (0%≤ substrate protein remaining % ≤80%)	A (0%≤ substrate protein remaining % ≤80%)	–	–
< 500	O=C1CCC(N2Cc3cc(OC4CN(C(c5ccccc5)c5ccccc5)C4)ccc3C2=O)C(=O)N1 (centres unmarked) [GT-06185, 3-(5-((1-benzhydrylazetidin-3-yl)oxy)-1-oxoisoindolin-2-yl)piperidine-2,6-dione]	A (0%≤ substrate protein remaining % ≤80%)	–	A (0%≤ substrate protein remaining % ≤80%)	–	A (0%≤ substrate protein remaining % ≤80%)	–
500 to 1000	O=C1CCC(N2Cc3cc(OC4CCN(Cc5ccccc5-c5ccc(Cl)cc5)C4)ccc3C2=O)C(=O)N1 (centres unmarked) [GT-06817, 3-(5-((1-((4′-chloro-[1,1′-biphenyl]-2-yl)methyl)pyrrolidin-3-yl)oxy)-1-oxoisoindolin-2-yl)piperidine-2,6-dione]	A (0%≤ substrate protein remaining % ≤80%)	A (0%≤ substrate protein remaining % ≤80%)	A (0%≤ substrate protein remaining % ≤80%)	A (0%≤ substrate protein remaining % ≤80%)	A (0%≤ substrate protein remaining % ≤80%)	–
< 500	O=C1CCC(N2Cc3cc(SC4CNC4)ccc3C2=O)C(=O)N1 (centres unmarked) [GT-03613, 3-(5-(azetidin-3-ylthio)-1-oxoisoindolin-2-yl)piperidine-2,6-dione]	–	A (0%≤ substrate protein remaining % ≤80%)	A (0%≤ substrate protein remaining % ≤80%)	A (0%≤ substrate protein remaining % ≤80%)	A (0%≤ substrate protein remaining % ≤80%)	A (0%≤ substrate protein remaining % ≤80%)
< 500	COc1ccc(C(c2ccc(OC)cc2)N2CC(Oc3ccc4c(c3)CN(C3CCC(=O)NC3=O)C4=O)C2)cc1 (centres unmarked) [GT-06959, 3-(5-((1-(bis(4-methoxyphenyl)methyl)azetidin-3-yl)oxy)-1-oxoisoindolin-2-yl)piperidine-2,6-dione]	A (0%≤ substrate protein remaining % ≤80%)	A (0%≤ substrate protein remaining % ≤80%)	A (0%≤ substrate protein remaining % ≤80%)	A (0%≤ substrate protein remaining % ≤80%)	–	–
< 500	O=C1CCC(N2Cc3cc(SC4CCN(C(=O)c5ccccc5-c5ccc(Cl)cc5)C4)ccc3C2=O)C(=O)N1 (centres unmarked) [GT-06181, 3-(5-((1-(4′-chloro-[1,1′-biphenyl]-2-carbonyl)pyrrolidin-3-yl)thio)-1-oxoisoindolin-2-yl)piperidine-2,6-dione]	A (0%≤ substrate protein remaining % ≤80%)	–	A (0%≤ substrate protein remaining % ≤80%)	A (0%≤ substrate protein remaining % ≤80%)	–	–
